In one data set the test system is P-388 leukemia. The settings on record: vs P-388 leukemia in mice; reported in U.S. Pat. No. 4,301,277; cited from earlier work.
Data set [1] deals with leukemic cells L1210. Kind of data set: Inhibition of growth of cultivated leukemic cells L1210 of mice. The class given is cell-based. Conditions: for IC50: Mus musculus, growth, RPMI 1640, 20% calf serum, 37° C. As to the method: (§1) (A) Activity of inhibiting growth, DNA synthesis and RNA synthesis of cultivated leukemic cells L1210 of mice.
For example, L1210 cells were inoculated in a concentration of 5×10^4 /ml in an RPMI 1640 culture medium containing 20% calf serum (Rosewell Memorial Park Institute 1640), and simultaneously 3'-deamino-3'-morpholino-carminomycin was added in various concentrations. Thus, the cells were cultivated in an incubator containing carbon dioxide gas at 37° C. The 50% growth inhibitory concentration with respect to a control group was determined.

A further data set has as its system Staph. aureus FDA 209P. The data set is described as follows: Minimum inhibitory concentration by broth dilution method. The class given is cell-based. Conditions: Staphylococcus aureus, FDA209P. From the text:
(§2) To illustrate such activity, minimum inhibitory concentrations (as determined by the broth dilution method) of the compound against several bacteria are shown in the Table below.
(In general: Dilution methods test growth across graded concentrations, often in twofold steps.)

In data set [2] the test system is Corynebacterium bovis 1810. The data set is described as above. The class given is cell-based.
Text: as §2

Data set [3] relates to Bacillus cereus ATCC 10702. Described as above. The class given is cell-based. The settings on record: ATCC10702.
Text: as §2

For data set [4], the system named is Pseudomonas aeruginosa A3. The data set is described as above. In kind it is cell-based.
Text: as §2

For the next data set, the system named is Staph. aureus Smith. The description is as above. In kind it is cell-based. The settings on record: Staphylococcus aureus.
Text: as §2

Data set [5] concerns Micrococcus flavus FDA 16. The description is as above. Conditions: FDA16. The class given is cell-based.
Text: as §2

The test system of data set [6] is Bacillus subtilis NRRL B-558. The data set is described as above. The class given is cell-based. Conditions: NRRLB558.
Text: as §2

The next data set concerns Sarcina lutea PCI 1001. The description is as above. In kind it is cell-based. Conditions: Micrococcus luteus, PCI1001.
Text: as §2

The subject of data set [7] is leukemic cells L1210. Kind of data set: Inhibition of DNA synthesis (14C-thymidine incorporation) in cultivated leukemic cells L1210 of mice. In kind it is cell-based. Conditions: Mus musculus, L1210, 1 h, 60 minutes, 37° C., RPMI 1640, 10% calf serum. As to the method: as §1
(§3) Separately, the above cultivated cells L1210 were suspended in a concentration of 1×10^5 /ml in an RPMI 1640 medium containing 10% of calf serum, and cultivated for 1 to 2 hours in an incubator containing carbon dioxide gas at 37° C. Then, 3'-deamino-3'-morpholino-carminomycin was added in various concentrations,and 15 minutes later, ^14 C-uridine (0.05 μCi/ml) and ^14 C-thymidine (0.05 μCi/ml) were added. Thus, the cells were cultivated at 37° C. for 60 minutes. A 10% aqueous solution of trichloroacetic acid was added to the reaction liquor to stop the reaction and simultaneously precipitate an acid-insoluble matter. The acid-insoluble matter was washed three times with a 10-5% aqueous solution of trichloroacetic acid, and then dissolved in formic acid. The radioactivity of the acid-insoluble matter was measured. From the ratio of incorporated radiation to that of a control group, the concentrations which inhibited radiation by 50% were measured.
Background: Incorporation of labelled thymidine or its analogues reports DNA synthesis.

The nature of data set [8]: Acute toxicity by oral administration on CDF1 mouse. The settings on record: in vivo. From the text: (C) Acute toxicity by oral administration on CDF1 mouse.
The subject of data set [9] is leukemic cells L1210. Kind of data set: Inhibition of RNA synthesis (14C-uridine incorporation) in cultivated leukemic cells L1210 of mice. In kind it is cell-based. The settings on record: Mus musculus, L1210, 1 h, 60 minutes, 37° C., RPMI 1640, 10% calf serum. The protocol:
as §1, §3

Data set [10] concerns leukemic cells L1210. Kind of data set: Antitumor activity on CDF1 mouse leukemia induced by leukemic cells L1210. In kind it is in vivo, CDF1 mice. Conditions: 10 consecutive days. As to the method:
(B) Antitumor activitiy on CDF1 mouse leukemia induced by leukemic cells L1210 of mice.
Leukemic cells L1210 of mice were intraperitoneally transplanted in an amount of 1×10^5 per mouse in CDF1 mice. Starting 24 hours after the transplantation, 3'-deamino-3'-morpholino-carminomycin was intraperitoneally or orally administered to the mice for 10 consecutive days. The survival rate (T/C, %) was calculated in comparison with a control group (to which physiological saline was administered).

In brackets after ≈: the same amount, converted by molar mass.

The text below walks through data of patent US4374980A, “3'-Deamino-3'-morpholino carminomycin” (Zaidan Hojin Biseibutsu Kagaku Kenkyu Kai, priority 1981, dated 1983).

In the case of `COc1cccc2c1C(=O)c1c(O)c3c(c(O)c1C2=O)C[C@@](O)(C(C)=O)C[C@@H]3O[C@H]1C[C@H](N2CCOCC2)[C@H](O)[C@H](C)O1` [3'-deamino-3'-morpholino-daunomycin, 3'-Deamino-3'-morpholinodaunomycin], the “antitumor potency relative to adriamycin and daunomycin starting materials” value with P-388 leukemia is given as “significantly greater antitumor potency”.
For `CC(=O)[C@]1(O)Cc2c(O)c3c(c(O)c2[C@@H](O[C@H]2C[C@H](N4CCOCC4)[C@H](O)[C@H](C)O2)C1)C(=O)c1c(O)cccc1C3=O` [3'-Deamino-3'-morpholino-carminomycin], the IC50 came to 0.01 µg/mL (≈ 0.0171 µM) in the data set on leukemic cells L1210 [1] (L1210, 24 h, 1 day, read-out: IC50 growth, 1 day after); 0.0009 µg/mL (≈ 0.00154 µM) with leukemic cells L1210 [1] (L1210, 48 h, 2 days, read-out: IC50 growth, 2 days after); 0.09 µg/mL (≈ 0.154 µM) in the data set with leukemic cells L1210 [7]; 0.013 µg/mL (≈ 0.0223 µM) in the data set with leukemic cells L1210 [9]. Also, in the data set with leukemic cells L1210 [1] (cultivated L1210 cells of mice), the “inhibition of growth and nucleic acid synthesis (in words)” value was “markedly inhibit the growth and nucleic acid synthesis”. For the same molecule, the MIC against Staph. aureus FDA 209P was 0.78 µg/mL (≈ 1.34 µM); in [2], 0.39 µg/mL (≈ 0.668 µM); in data set [3], 0.78 µg/mL (≈ 1.34 µM); in data set [4], more than 100 µg/mL; in the data set on Staph. aureus Smith it was 6.25 µg/mL (≈ 10.7 µM); in [5], 1.56 µg/mL (≈ 2.67 µM). Also, the values for the MIC (in data set [6]; in the data set on Sarcina lutea PCI 1001) were 1.56 µg/mL (≈ 2.67 µM) and 0.78 µg/mL (≈ 1.34 µM), respectively. In [8], the LD50 is 1.56 mg/kg. The “T/C % of the survival period” value in the data set on leukemic cells L1210 [10] (i.p., 0.39 μg/mouse/day) came out at 94%; in the data set on leukemic cells L1210 [10] (i.p., 0.78 μg/mouse/day), 122%; with leukemic cells L1210 [10] (i.p., 1.56 μg/mouse/day), 94%; in the data set with leukemic cells L1210 [10] (i.p., 3.125 μg/mouse/day), 122%; in the data set with leukemic cells L1210 [10] (i.p., 6.25 μg/mouse/day), 122%; with leukemic cells L1210 [10] (i.p., 12.5 μg/mouse/day) it was 194%. Besides, the “T/C % of the survival period” value is given as 100% with leukemic cells L1210 [10] (p.o., 0.39 μg/mouse/day); 111% in the data set with leukemic cells L1210 [10] (p.o., 0.78 μg/mouse/day); 106% in the data set on leukemic cells L1210 [10] (p.o., 1.56 μg/mouse/day); 133% in the data set with leukemic cells L1210 [10] (p.o., 3.125 μg/mouse/day); 167% in the data set with leukemic cells L1210 [10] (p.o., 6.25 μg/mouse/day); 206% in the data set on leukemic cells L1210 [10] (p.o., 12.5 μg/mouse/day). Further, the “toxicity (footnote *)” value in the data set with leukemic cells L1210 [10] (i.p., 12.5 μg/mouse/day) is given as “Toxic”.
`COc1cccc2c1C(=O)c1c(O)c3c(c(O)c1C2=O)C[C@@](O)(C(=O)CO)C[C@@H]3O[C@H]1C[C@H](N2CCOCC2)[C@H](O)[C@H](C)O1` [3'-deamino-3'-morpholino-adriamycin, 3'-Deamino-3'-morpholino-adriamycin]: the “antitumor potency relative to adriamycin and daunomycin starting materials” value in the data set with P-388 leukemia is listed as “significantly greater antitumor potency”.

As a reminder, the IC50 is the concentration that inhibits the measured activity by half. A word on the MIC: it is the smallest concentration in the dilution series that meets the test's criterion for growth inhibition. Higher therefore signals a need for much substance. What is called LD50 is the dose expected to kill half of the subjects tested. Read a low LD50 as greater toxicity.
